{"source": "PubChem BioAssay AID1918994", "about": "(Molecular Pharmacology Branch, DTP, NCI, 2023)", "tested_on": "292921-168-R-J2-PDC complex spheroid growth", "experiment": "Anticancer human tumor 292921-168-R-J2-PDC patient-derived pancreatic carcinoma cell line growth inhibition [AhR]", "details": "for IC50: curve of first compound; for viability, T/C: stronger effect = lower value", "outline": "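Agents were dosed in half-log steps down from roughly clinical Cmax, or from 10 microM where Cmax was unknown, alone and with AhR antagonists. Read-out: percent test/control growth of tumor spheroids containing HUVEC and MSC stromal cells.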"}
{"compound": "CC(C)c1c(-c2ccccc2)nc2c(C#N)c[nH]n2c1=O", "note": "+ Cc1cncc(-c2nc(NCCc3c[nH]c4ccccc34)c3ncn(C(C)C)c3n2)c1;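 note: spheroids exposed to compounds for seven days after three days of growth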", "values": [{"measurement": "IC50", "setting": "second compound 0.1 µM", "result": "> 10", "unit": "µM"}, {"measurement": "IC50", "setting": "second compound 0.316 µM", "result": "> 10", "unit": "µM"}, {"measurement": "IC50", "setting": "second compound 1 µM", "result": "> 10", "unit": "µM"}, {"measurement": "IC50", "setting": "second compound 3.16 µM", "result": "> 10", "unit": "µM"}, {"measurement": "IC50", "setting": "second compound 10 µM", "result": 0.386, "unit": "µM"}, {"measurement": "viability, T/C", "setting": "second compound 0.1 µM, first compound 0.0316 µM", "result": 103, "unit": "%"}, {"measurement": "viability, T/C", "setting": "second compound 0.1 µM, first compound 0.1 µM", "result": 95.1, "unit": "%"}, {"measurement": "viability, T/C", "setting": "second compound 0.1 µM, first compound 0.316 µM", "result": 89.7, "unit": "%"}, {"measurement": "viability, T/C", "setting": "second compound 0.1 µM, first compound 1 µM", "result": 98.8, "unit": "%"}, {"measurement": "viability, T/C", "setting": "second compound 0.1 µM, first compound 3.16 µM", "result": 97.4, "unit": "%"}, {"measurement": "viability, T/C", "setting": "second compound 0.1 µM, first compound 10 µM", "result": 97.2, "unit": "%"}, {"measurement": "viability, T/C", "setting": "second compound 0.316 µM, first compound 0.0316 µM", "result": 98.7, "unit": "%"}, {"measurement": "viability, T/C", "setting": "second compound 0.316 µM, first compound 0.1 µM", "result": 98.8, "unit": "%"}, {"measurement": "viability, T/C", "setting": "second compound 0.316 µM, first compound 0.316 µM", "result": 95.8, "unit": "%"}, {"measurement": "viability, T/C", "setting": "second compound 0.316 µM, first compound 1 µM", "result": 99.8, "unit": "%"}, {"measurement": "viability, T/C", "setting": "second compound 0.316 µM, first compound 3.16 µM", "result": 100, "unit": "%"}, {"measurement": "viability, T/C", "setting": "second compound 0.316 µM, first compound 10 µM", "result": 92.7, "unit": "%"}, {"measurement": "viability, T/C", "setting": "second compound 1 µM, first compound 0.0316 µM", "result": 91.2, "unit": "%"}, {"measurement": "viability, T/C", "setting": "second compound 1 µM, first compound 0.1 µM", "result": 85.6, "unit": "%"}, {"measurement": "viability, T/C", "setting": "second compound 1 µM, first compound 0.316 µM", "result": 88.9, "unit": "%"}, {"measurement": "viability, T/C", "setting": "second compound 1 µM, first compound 1 µM", "result": 83.5, "unit": "%"}, {"measurement": "viability, T/C", "setting": "second compound 1 µM, first compound 3.16 µM", "result": 75.4, "unit": "%"}, {"measurement": "viability, T/C", "setting": "second compound 1 µM, first compound 10 µM", "result": 78.1, "unit": "%"}, {"measurement": "viability, T/C", "setting": "second compound 3.16 µM, first compound 0.0316 µM", "result": 76.4, "unit": "%"}, {"measurement": "viability, T/C", "setting": "second compound 3.16 µM, first compound 0.1 µM", "result": 76.3, "unit": "%"}, {"measurement": "viability, T/C", "setting": "second compound 3.16 µM, first compound 0.316 µM", "result": 79, "unit": "%"}, {"measurement": "viability, T/C", "setting": "second compound 3.16 µM, first compound 1 µM", "result": 67.1, "unit": "%"}, {"measurement": "viability, T/C", "setting": "second compound 3.16 µM, first compound 3.16 µM", "result": 65.3, "unit": "%"}, {"measurement": "viability, T/C", "setting": "second compound 3.16 µM, first compound 10 µM", "result": 62, "unit": "%"}, {"measurement": "viability, T/C", "setting": "second compound 10 µM, first compound 0.0316 µM", "result": 51, "unit": "%"}, {"measurement": "viability, T/C", "setting": "second compound 10 µM, first compound 0.1 µM", "result": 50.1, "unit": "%"}, {"measurement": "viability, T/C", "setting": "second compound 10 µM, first compound 0.316 µM", "result": 56.2, "unit": "%"}, {"measurement": "viability, T/C", "setting": "second compound 10 µM, first compound 1 µM", "result": 46.1, "unit": "%"}, {"measurement": "viability, T/C", "setting": "second compound 10 µM, first compound 3.16 µM", "result": 43.9, "unit": "%"}, {"measurement": "viability, T/C", "setting": "second compound 10 µM, first compound 10 µM", "result": 42.6, "unit": "%"}]}
